Source: the NIST ThermoML archive (doi:10.1021/je030136n)
Numbers after ± are expanded uncertainties.

Experiment: xn = mol fraction of the nth substance listed
Settings: Liquid, Pulse-echo method

SMILES: CCCCCCC [heptane] + CCCO
- speed of sound (293.1 K, 45590 kPa, x2 = 0.6027): 1414.5 ± 1.1 m/s
- speed of sound (293.1 K, 91190 kPa, x2 = 0.1008): 1599 ± 1.3 m/s
- speed of sound (293.1 K, 91190 kPa, x2 = 0.3008): 1594.3 ± 1.2 m/s
- speed of sound (293.1 K, 111450 kPa, x2 = 0): 1674.3 ± 1.3 m/s
- speed of sound (293.11 K, 45590 kPa, x2 = 0.1008): 1412 ± 1.2 m/s
- speed of sound (293.11 K, 121580 kPa, x2 = 0.7986): 1691.8 ± 1.3 m/s
- speed of sound (293.12 K, 100 kPa, x2 = 0.4992): 1158.2 ± 1.1 m/s
- speed of sound (293.12 K, 30400 kPa, x2 = 0.7986): 1355.6 ± 1.1 m/s
- speed of sound (293.12 K, 45590 kPa, x2 = 0.7986): 1424 ± 1.1 m/s
- speed of sound (293.12 K, 75990 kPa, x2 = 0.7986): 1543.1 ± 1.2 m/s
- speed of sound (293.13 K, 100 kPa, x2 = 0.6027): 1164.9 ± 1.1 m/s
- speed of sound (293.13 K, 30400 kPa, x2 = 0.6027): 1343.3 ± 1.1 m/s
- speed of sound (293.13 K, 45590 kPa, x2 = 0.4992): 1412.6 ± 1.1 m/s
- speed of sound (293.13 K, 60790 kPa, x2 = 0.7986): 1486.1 ± 1.1 m/s
- speed of sound (293.13 K, 75990 kPa, x2 = 0.1008): 1541.8 ± 1.2 m/s
- speed of sound (293.13 K, 121580 kPa, x2 = 0.1008): 1701.6 ± 1.3 m/s
- speed of sound (293.14 K, 100 kPa, x2 = 0.7016): 1173.8 ± 1 m/s
- speed of sound (293.14 K, 100 kPa, x2 = 0.7986): 1185.8 ± 1 m/s
- speed of sound (293.14 K, 60790 kPa, x2 = 0.6027): 1478.7 ± 1.2 m/s
- speed of sound (293.14 K, 91190 kPa, x2 = 0.6027): 1592.5 ± 1.2 m/s
- speed of sound (293.14 K, 101320 kPa, x2 = 0.1008): 1634.7 ± 1.3 m/s
- speed of sound (293.14 K, 111450 kPa, x2 = 0.3008): 1663.3 ± 1.3 m/s
- speed of sound (293.14 K, 111450 kPa, x2 = 0.7986): 1661.2 ± 1.2 m/s
- speed of sound (293.15 K, 100 kPa, x2 = 0): 1151.7 ± 1.1 m/s
- speed of sound (293.15 K, 75990 kPa, x2 = 0.6027): 1537.8 ± 1.2 m/s
- speed of sound (293.15 K, 111450 kPa, x2 = 0.1008): 1668.9 ± 1.3 m/s
- speed of sound (293.16 K, 30400 kPa, x2 = 0.7016): 1348.5 ± 1.1 m/s
- speed of sound (293.16 K, 60790 kPa, x2 = 0.4992): 1478 ± 1.2 m/s
- speed of sound (293.16 K, 75990 kPa, x2 = 0.4992): 1537.8 ± 1.2 m/s
- speed of sound (293.16 K, 91190 kPa, x2 = 0.7986): 1595.9 ± 1.2 m/s
- speed of sound (293.16 K, 101320 kPa, x2 = 0.3008): 1629.5 ± 1.3 m/s
- speed of sound (293.16 K, 111450 kPa, x2 = 0.6027): 1659.8 ± 1.2 m/s
- speed of sound (293.16 K, 121580 kPa, x2 = 0): 1707.1 ± 1.4 m/s
- speed of sound (293.16 K, 121580 kPa, x2 = 0.7016): 1691 ± 1.3 m/s
- speed of sound (293.17 K, 30400 kPa, x2 = 0.4992): 1340.5 ± 1.1 m/s
- speed of sound (293.17 K, 45590 kPa, x2 = 0.7016): 1418.3 ± 1.1 m/s
- speed of sound (293.17 K, 101320 kPa, x2 = 0.7986): 1629.2 ± 1.2 m/s
- speed of sound (293.17 K, 121580 kPa, x2 = 0.3008): 1695.5 ± 1.3 m/s
- speed of sound (293.18 K, 30400 kPa, x2 = 0): 1341.5 ± 1.2 m/s
- speed of sound (293.18 K, 60790 kPa, x2 = 0.7016): 1481.6 ± 1.1 m/s
- speed of sound (293.18 K, 101320 kPa, x2 = 0.6027): 1626.9 ± 1.2 m/s
- speed of sound (293.18 K, 111450 kPa, x2 = 0.7016): 1659.9 ± 1.2 m/s
- speed of sound (293.18 K, 121580 kPa, x2 = 0.6027): 1691.2 ± 1.3 m/s
- speed of sound (293.19 K, 45590 kPa, x2 = 0): 1416.6 ± 1.2 m/s
- speed of sound (293.19 K, 60790 kPa, x2 = 0.1008): 1479.6 ± 1.2 m/s
- speed of sound (293.19 K, 60790 kPa, x2 = 0.3008): 1476.8 ± 1.2 m/s
- speed of sound (293.19 K, 91190 kPa, x2 = 0.4992): 1592.6 ± 1.2 m/s
- speed of sound (293.19 K, 101320 kPa, x2 = 0.7016): 1627.5 ± 1.2 m/s
- speed of sound (293.2 K, 15200 kPa, x2 = 0): 1256.3 ± 1.1 m/s
- speed of sound (293.2 K, 60790 kPa, x2 = 0): 1484.5 ± 1.2 m/s
- speed of sound (293.2 K, 75990 kPa, x2 = 0): 1546.5 ± 1.3 m/s
- speed of sound (293.2 K, 75990 kPa, x2 = 0.3008): 1537.7 ± 1.2 m/s
- speed of sound (293.2 K, 75990 kPa, x2 = 0.7016): 1539.8 ± 1.2 m/s
- speed of sound (293.2 K, 91190 kPa, x2 = 0): 1603.7 ± 1.3 m/s
- speed of sound (293.2 K, 91190 kPa, x2 = 0.7016): 1593.7 ± 1.2 m/s
- speed of sound (293.2 K, 101320 kPa, x2 = 0): 1639.7 ± 1.3 m/s
- speed of sound (293.21 K, 100 kPa, x2 = 0.3008): 1149.9 ± 1.1 m/s
- speed of sound (293.21 K, 30400 kPa, x2 = 0.3008): 1336.5 ± 1.1 m/s
- speed of sound (293.21 K, 101320 kPa, x2 = 0.4992): 1627.3 ± 1.2 m/s
- speed of sound (293.21 K, 111450 kPa, x2 = 0.4992): 1660.5 ± 1.3 m/s
- speed of sound (293.22 K, 100 kPa, x2 = 0.1008): 1147.3 ± 1.1 m/s
- speed of sound (293.22 K, 15200 kPa, x2 = 0.1008): 1252 ± 1.1 m/s
- speed of sound (293.22 K, 30400 kPa, x2 = 0.1008): 1337 ± 1.1 m/s
- speed of sound (293.22 K, 45590 kPa, x2 = 0.3008): 1410.2 ± 1.2 m/s
- speed of sound (293.23 K, 121580 kPa, x2 = 0.4992): 1692.2 ± 1.3 m/s
- speed of sound (298.06 K, 121580 kPa, x2 = 0.6027): 1679 ± 1.3 m/s
- speed of sound (298.1 K, 101320 kPa, x2 = 0.3008): 1616 ± 1.3 m/s
- speed of sound (298.11 K, 75990 kPa, x2 = 0): 1531.6 ± 1.3 m/s
- speed of sound (298.13 K, 100 kPa, x2 = 0.4992): 1137 ± 1.1 m/s
- speed of sound (298.13 K, 101320 kPa, x2 = 0.4992): 1614.4 ± 1.2 m/s
- speed of sound (298.13 K, 111450 kPa, x2 = 0): 1660.5 ± 1.5 m/s
- speed of sound (298.13 K, 111450 kPa, x2 = 0.6027): 1647.1 ± 1.2 m/s
- speed of sound (298.13 K, 111450 kPa, x2 = 0.7986): 1649.2 ± 1.2 m/s
- speed of sound (298.14 K, 91190 kPa, x2 = 0.4992): 1579.3 ± 1.2 m/s
- speed of sound (298.14 K, 111450 kPa, x2 = 0.3008): 1650.1 ± 1.3 m/s
- speed of sound (298.14 K, 121580 kPa, x2 = 0): 1692.4 ± 1.4 m/s
- speed of sound (298.14 K, 121580 kPa, x2 = 0.1008): 1688.8 ± 1.3 m/s
- speed of sound (298.14 K, 121580 kPa, x2 = 0.4992): 1679.9 ± 1.3 m/s
- speed of sound (298.15 K, 100 kPa, x2 = 0.1008): 1125.7 ± 1.1 m/s
- speed of sound (298.15 K, 30400 kPa, x2 = 0.4992): 1323.2 ± 1.1 m/s
- speed of sound (298.15 K, 30400 kPa, x2 = 0.7986): 1339.6 ± 1.1 m/s
- speed of sound (298.15 K, 60790 kPa, x2 = 0.4992): 1462.7 ± 1.2 m/s
- speed of sound (298.15 K, 75990 kPa, x2 = 0.4992): 1523.3 ± 1.2 m/s
- speed of sound (298.15 K, 91190 kPa, x2 = 0): 1589.4 ± 1.3 m/s
- speed of sound (298.15 K, 101320 kPa, x2 = 0.6027): 1613.9 ± 1.2 m/s
- speed of sound (298.15 K, 111450 kPa, x2 = 0.4992): 1647.9 ± 1.3 m/s
- speed of sound (298.15 K, 121580 kPa, x2 = 0.3008): 1682.7 ± 1.3 m/s
- speed of sound (298.16 K, 100 kPa, x2 = 0): 1129.9 ± 1.1 m/s
- speed of sound (298.16 K, 45590 kPa, x2 = 0.1008): 1395.7 ± 1.2 m/s
- speed of sound (298.16 K, 45590 kPa, x2 = 0.4992): 1396.7 ± 1.1 m/s
- speed of sound (298.16 K, 45590 kPa, x2 = 0.7986): 1408.9 ± 1.1 m/s
- speed of sound (298.16 K, 101320 kPa, x2 = 0): 1625.7 ± 1.3 m/s
- speed of sound (298.16 K, 101320 kPa, x2 = 0.1008): 1620.6 ± 1.3 m/s
- speed of sound (298.16 K, 111450 kPa, x2 = 0): 1660.4 ± 1.5 m/s
- speed of sound (298.17 K, 100 kPa, x2 = 0.7986): 1166.7 ± 1 m/s
- speed of sound (298.17 K, 15200 kPa, x2 = 0.1008): 1232.9 ± 1.1 m/s
- speed of sound (298.17 K, 30400 kPa, x2 = 0.1008): 1319.5 ± 1.1 m/s
